The test system of the assay is Escherichia coli (ATCC25922 strain). The experiment in a line: antimicrobial susceptibility test by an ATP method (ATP luminescence), E. coli. Format: cell-based. To be noted: for RLU value as compared with that at ampicillin 0 μg/mL: plateau after 2 hours. From the text: In the Example, the amount of luminescence is expressed by the integration of the 60-sec photon count, and the unit is the amount of luminescence (a.u.). Since the amount of luminescence and the amount of ATP are in a proportional relationship, the increase in the amount of luminescence and the increase in the amount of ATP are to be expressed with the same implications.
Benzalkonium chloride was used as an extraction liquid, and Lucifer HS set (Kikkoman) was used as a luminescence reagent.
First, H. influenzae was cultured one night on a chocolate agar medium under a carbon dioxide gas atmosphere of 5 to 10%, and on the next day, the colony was suspended in a Mueller-Hinton (hereinafter referred to as MH) medium to produce a bacterial suspension that was prepared to 0.5 McFarland. Next, in a plate in which 50 μL each of an MH medium with the antibody of the two-fold concentration of the final concentration was previously dispensed, 50 μL each of a bacterial suspension diluted 500-fold with the MH medium was dispensed to provide an AST panel.
The first plate 21 and the second plate 22 were joined via the joint portion 23. The temperature of the ATP examination culture plate 12 was kept at 37° C. by the heater 11 and after a certain period of time, 10 μL of the bacterial culture solution of H. influenzae was dispensed from the culture vessel in the first plate 21 into the reaction vessel in the second plate 22 in which the gas atmosphere was previously prepared to 5 to 10% carbon dioxide. Subsequently, 10 μL of the extraction liquid was dispensed from the extraction liquid holding part 43 into the reaction vessel, and then 50 μL of the luminescence reagent was dispensed from the luminescence reagent holding part 46 into the reaction vessel.
After dispensing the luminescence reagent, the amount of luminescence in the reaction vessel was detected by the optical detector 13. In the optical detector 13, photo-counting was performed for 1 minute, and the detected amount of luminescence RLU (relative light unit) was used as a measure of the amount of ATP.
Example 2 was conducted in the same manner as in Example 1, except that Escherichia coli (ATCC25922 strain, hereinunder, E. coli) was used as bacterial cells, ampicillin was used as an antibody, and the gas atmosphere in the culture solution holding part 47 and the reaction vessel 44 of the ATP examination culture plate 21 was an air atmosphere. The antibody (ampicillin) concentration was 0, 2, 4, and 8 μg/mL. […] When the ampicillin concentration was 0 μg/mL, RLU increased in an exponential manner from the start of the culture until 4 hours, and thereafter ran at a constant value. […] On the other hand, when the ampicillin concentration was 4 μg/mL and 8 μg/mL, RLU increased from the start of the culture until 2 hours and thereafter ran at a constant value. The RLU value was as low as about 1/20 as compared with that at an ampicillin concentration of 0 μg/mL, and it can be seen that the growth of E. coli was suppressed by the action of ampicillin.

In the case of `CC1(C)S[C@@H]2[C@H](NC(=O)[C@H](N)c3ccccc3)C(=O)N2[C@H]1C(=O)O` [ampicillin], the “susceptibility determination of E. coli” value (ampicillin 2 μg/mL) is “resistant”, the “susceptibility determination of E. coli” value (ampicillin 4 μg/mL) was “has sensitivity” and the “susceptibility determination of E. coli” value (ampicillin 8 μg/mL) is “has sensitivity”. In addition, under “ampicillin 2 μg/mL, air atmosphere, FIG. 10, 0 μg/mL: exponential increase until 4 hours, then constant”, the “RLU time course compared with ampicillin 0 μg/mL” value is reported as “a similar trend was shown”. Moreover, the “RLU value as compared with that at ampicillin 0 μg/mL” value is, setting by setting: (ampicillin 4 μg/mL, air atmosphere, FIG. 10) “about 1/20”; (ampicillin 8 μg/mL, air atmosphere, FIG. 10) “about 1/20”. The “concentration at which E. coli has sensitivity” value (tested 0, 2, 4 and 8 μg/mL, ATP luminescence) was at least 4 µg/mL.

The values above are taken from US10323266B2, “Antimicrobial susceptibility testing device, antimicrobial susceptibility testing kit, and antimicrobial susceptibility testing method” (Hitachi, Ltd., priority 2015, dated 2019).
